pIC50: −log10 of the molar value. Like-named read-outs stand apart in the source and are kept apart here.
Columns and labels:
E. coli DNA gyrase = molecular target: T1, E. coli DNA gyrase (Escherichia coli, UniProt P0AES6); experiment: biochemical
T1 construct: purchased Inspiralis
Experimental: (§1) Inhibitory activities for compounds of the present invention were determined on E. coli and S. aureus DNA gyrase and topoisomerase IV in an assay from Inspiralis on streptavidin-coated 96-well microtiter plates from Thermo scientific Pierce. […] After washing off the unbound oligonucleotide, the enzyme test was performed. […] Reaction solutions were incubated at 37° C. for 30 min. After that, the TF buffer (50 mM NaOAc with pH 5.0, 50 mM NaCl and 50 mM MgCl2) was added to terminate the enzymatic reaction. After additional incubation for 30 min at rt, during which biotin-oligonucleotide-plasmid triplex was formed, the unbound plasmid was washed off using TF buffer and SybrGOLD in T10 buffer (10 mM Tris HCl with pH 8.0 and 1 mM EDTA) was added. […] GraphPad Prism 6.0 software was used to calculate the IC50 values. The result is given as the average value of three independent measurements. […] Chemoth.

S. aureus DNA gyrase = molecular target: T2, S. aureus DNA gyrase (Staphylococcus aureus, UniProt P0A0K8); experiment: biochemical
T2 construct: purchased Inspiralis
Experimental: as §1

[1] = test system: S. aureus ATCC 700699 (VISA); experiment: Microbroth dilution MIC (CLSI); assay type: cell-based; conditions: Staphylococcus aureus
Experimental: (§2) The chemical entities described in the present invention were assessed for their antimicrobial activity using a microbroth dilution assay as recommended by the CLSI (Methods for Dilution Antimicrobial Susceptibility Tests for Bacteria That Grow Aerobically, and Methods for Antimicrobial Susceptibility Testing of Anaerobic Bacteria, Clinical and Laboratory Standards Institute, Document M07-A8, and M11-A8, Wayne, PA 19087, USA, 2012.). Compounds were dissolved by using 100% DMSO. Serial two-fold dilutions of each compound were made by using 100% DMSO as the diluent.
(§3) A library of Gram-negative and Gram-positive microbes and their drug- and multidrug-resistant variants were employed as test organisms. The MIC (minimum inhibitory concentration) was determined as the lowest concentration of an individual drug that lead to no visible growth.

[2] = test system: E. spp. cloacae ATCC 13047; experiment: Microbroth dilution MIC (CLSI); assay type: cell-based; conditions: Enterobacter cloacae, ATCC13047
Experimental: as §2, §3

E. coli ATCC 25922 = experiment: Microbroth dilution MIC (CLSI); assay type: cell-based; conditions: Escherichia coli, ATCC25922
Experimental: as §2, §3

E. faecalis ATCC 29212 = experiment: Microbroth dilution MIC (CLSI); assay type: cell-based; conditions: Enterococcus faecalis, ATCC29212
Experimental: as §2, §3

A. baumannii ATCC 17978 = experiment: Microbroth dilution MIC (CLSI); assay type: cell-based; conditions: Acinetobacter baumannii, ATCC17978
Experimental: as §2, §3

E. faecium ATCC 700221 = experiment: Microbroth dilution MIC (CLSI); assay type: cell-based; conditions: Enterococcus faecium, ATCC700221
Experimental: as §2, §3

S. aureus ATCC 29213 = experiment: Microbroth dilution MIC (CLSI); assay type: cell-based; conditions: Staphylococcus aureus, ATCC29213
Experimental: as §2, §3

K. pneumoniae ATCC 10031 = experiment: Microbroth dilution MIC (CLSI); assay type: cell-based; conditions: Klebsiella pneumoniae, ATCC10031
Experimental: as §2, §3

P. aeruginosa ATCC 27853 = experiment: Microbroth dilution MIC (CLSI); assay type: cell-based; conditions: Pseudomonas aeruginosa, ATCC27853
Experimental: as §2, §3

[3] = test system: S. aureus ATCC 43300 (MRSA); experiment: Microbroth dilution MIC (CLSI); assay type: cell-based; conditions: Staphylococcus aureus
Experimental: as §2, §3

E. coli topoisomerase IV = molecular target: T3, E. coli topoisomerase IV (Escherichia coli, UniProt P20083); experiment: biochemical
T3 construct: purchased Inspiralis
Experimental: (§4) Inhibitory activities for compounds of the present invention were determined on E. coli and S. aureus DNA gyrase and topoisomerase IV in an assay from Inspiralis on streptavidin-coated 96-well microtiter plates from Thermo scientific Pierce. […] After washing off the unbound oligonucleotide, the enzyme test was performed. […] Reaction solutions were incubated at 37° C. for 30 min. After that, the TF buffer (50 mM NaOAc with pH 5.0, 50 mM NaCl and 50 mM MgCl2) was added to terminate the enzymatic reaction. After additional incubation for 30 min at rt, during which biotin-oligonucleotide-plasmid triplex was formed, the unbound plasmid was washed off using TF buffer and SybrGOLD in T10 buffer (10 mM Tris HCl with pH 8.0 and 1 mM EDTA) was added. […] Initial screening was done at 100 or 10 nM concentration of inhibitors against E. coli DNA gyrase or 1 μM or 100 nM concentration against S. aureus DNA gyrase and E. coli and S. aureus topo IV. […] GraphPad Prism 6.0 software was used to calculate the IC50 values. The result is given as the average value of three independent measurements. […] Chemoth.

[4] = molecular target: T4, S. aureus topoisomerase IV (Staphylococcus aureus, UniProt P0C1S7); experiment: Topoisomerase IV inhibition assay (Inspiralis, streptavidin-coated plates); assay type: biochemical; conditions: S. aureus topo IV, read-out: RA (residual activity of the enzyme)
T4 construct: purchased Inspiralis
Experimental: as §4

[5] = test system: A. baumannii (ATCC 19606); experiment: Microbroth dilution MIC (CLSI); assay type: cell-based; conditions: Acinetobacter baumannii, ATCC19606; A. baumannii (ATCC 19606); read-out: MIC
Experimental: as §2, §3

E. faecium (ATCC 35667) = experiment: Microbroth dilution MIC (CLSI); assay type: cell-based; conditions: Enterococcus faecium, ATCC35667; E. faecium (ATCC 35667); read-out: MIC
Experimental: as §2, §3

[6] = test system: K. pneumoniae (ATCC 700603); experiment: Microbroth dilution MIC (CLSI); assay type: cell-based; conditions: Klebsiella pneumoniae, ATCC700603; K. pneumoniae (ATCC 700603); read-out: MIC
Experimental: as §2, §3

[7] = test system: E. aerogenes (ATCC 13408); experiment: Microbroth dilution MIC (CLSI); assay type: cell-based, Enterobacter aerogenes; conditions: Klebsiella aerogenes, ATCC13408; E. aerogenes (ATCC 13408); read-out: MIC
Experimental: as §2, §3

[8] = E. coli DNA gyrase, read-out: IC50
[9] = E. coli ATCC 25922, read-out: MIC
[10] = S. aureus ATCC 29213, read-out: MIC
[11] = P. aeruginosa ATCC 27853, read-out: MIC

T4 sequence (P0C1U9 whole entry): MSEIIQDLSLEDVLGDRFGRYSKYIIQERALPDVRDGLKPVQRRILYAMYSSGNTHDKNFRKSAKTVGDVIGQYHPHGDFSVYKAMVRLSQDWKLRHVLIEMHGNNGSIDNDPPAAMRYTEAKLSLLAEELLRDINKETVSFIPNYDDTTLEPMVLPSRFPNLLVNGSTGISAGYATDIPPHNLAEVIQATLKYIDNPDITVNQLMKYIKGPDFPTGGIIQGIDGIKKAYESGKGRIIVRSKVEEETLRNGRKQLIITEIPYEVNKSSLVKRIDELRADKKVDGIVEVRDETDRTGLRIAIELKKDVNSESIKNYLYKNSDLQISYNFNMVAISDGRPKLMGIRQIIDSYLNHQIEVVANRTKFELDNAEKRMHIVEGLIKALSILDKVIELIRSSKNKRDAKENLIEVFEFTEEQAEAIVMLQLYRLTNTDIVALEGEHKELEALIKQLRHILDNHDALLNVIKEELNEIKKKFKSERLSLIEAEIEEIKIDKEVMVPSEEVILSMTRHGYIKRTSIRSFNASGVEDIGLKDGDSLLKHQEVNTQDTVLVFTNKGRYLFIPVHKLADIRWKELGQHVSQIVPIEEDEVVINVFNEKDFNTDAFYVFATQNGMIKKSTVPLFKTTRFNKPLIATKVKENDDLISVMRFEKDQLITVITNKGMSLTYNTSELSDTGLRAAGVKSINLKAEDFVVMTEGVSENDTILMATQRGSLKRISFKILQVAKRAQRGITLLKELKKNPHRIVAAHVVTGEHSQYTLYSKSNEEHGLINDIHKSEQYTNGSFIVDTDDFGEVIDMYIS
T4 sequence (P0C1S7 whole entry): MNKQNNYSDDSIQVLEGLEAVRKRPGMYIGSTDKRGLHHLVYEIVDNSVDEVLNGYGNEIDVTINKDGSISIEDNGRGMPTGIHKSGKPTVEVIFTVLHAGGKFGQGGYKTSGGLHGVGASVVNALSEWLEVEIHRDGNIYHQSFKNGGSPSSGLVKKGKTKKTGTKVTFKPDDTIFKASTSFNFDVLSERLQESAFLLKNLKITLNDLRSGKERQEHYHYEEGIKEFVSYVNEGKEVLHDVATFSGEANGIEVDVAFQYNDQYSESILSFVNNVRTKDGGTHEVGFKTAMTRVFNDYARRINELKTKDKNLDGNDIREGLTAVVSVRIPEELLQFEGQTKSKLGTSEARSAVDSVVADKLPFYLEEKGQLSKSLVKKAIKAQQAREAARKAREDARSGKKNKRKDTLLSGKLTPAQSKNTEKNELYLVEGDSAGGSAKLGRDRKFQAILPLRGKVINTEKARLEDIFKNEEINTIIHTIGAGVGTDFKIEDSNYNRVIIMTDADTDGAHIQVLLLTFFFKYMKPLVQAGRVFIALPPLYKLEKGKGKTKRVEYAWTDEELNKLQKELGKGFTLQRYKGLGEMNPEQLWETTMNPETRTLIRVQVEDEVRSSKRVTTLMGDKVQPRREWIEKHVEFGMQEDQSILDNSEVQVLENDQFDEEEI
T2 sequence (P20831 whole entry): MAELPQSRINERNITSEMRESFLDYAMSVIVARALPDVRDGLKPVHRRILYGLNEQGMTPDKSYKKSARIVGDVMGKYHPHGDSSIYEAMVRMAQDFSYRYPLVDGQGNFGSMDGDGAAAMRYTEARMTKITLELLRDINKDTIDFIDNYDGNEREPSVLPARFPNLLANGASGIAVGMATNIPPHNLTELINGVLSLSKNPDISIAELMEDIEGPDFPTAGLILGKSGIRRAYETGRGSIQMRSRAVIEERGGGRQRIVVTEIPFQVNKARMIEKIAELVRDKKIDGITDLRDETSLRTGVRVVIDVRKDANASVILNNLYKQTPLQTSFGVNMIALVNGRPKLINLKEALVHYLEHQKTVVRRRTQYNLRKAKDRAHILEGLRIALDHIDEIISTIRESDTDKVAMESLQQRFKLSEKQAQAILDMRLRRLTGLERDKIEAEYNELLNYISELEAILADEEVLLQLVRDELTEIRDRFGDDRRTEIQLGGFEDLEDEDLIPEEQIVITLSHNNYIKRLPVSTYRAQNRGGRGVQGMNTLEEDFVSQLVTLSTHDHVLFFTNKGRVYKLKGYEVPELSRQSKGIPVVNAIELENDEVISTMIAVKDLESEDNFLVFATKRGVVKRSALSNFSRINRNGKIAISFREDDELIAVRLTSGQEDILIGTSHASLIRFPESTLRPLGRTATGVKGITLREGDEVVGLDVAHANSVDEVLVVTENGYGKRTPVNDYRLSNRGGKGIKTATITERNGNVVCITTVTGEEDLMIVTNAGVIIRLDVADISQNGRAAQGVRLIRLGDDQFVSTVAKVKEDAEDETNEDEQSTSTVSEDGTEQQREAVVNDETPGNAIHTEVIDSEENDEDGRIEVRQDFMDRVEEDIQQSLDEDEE
T2 sequence (P0A0K8 whole entry): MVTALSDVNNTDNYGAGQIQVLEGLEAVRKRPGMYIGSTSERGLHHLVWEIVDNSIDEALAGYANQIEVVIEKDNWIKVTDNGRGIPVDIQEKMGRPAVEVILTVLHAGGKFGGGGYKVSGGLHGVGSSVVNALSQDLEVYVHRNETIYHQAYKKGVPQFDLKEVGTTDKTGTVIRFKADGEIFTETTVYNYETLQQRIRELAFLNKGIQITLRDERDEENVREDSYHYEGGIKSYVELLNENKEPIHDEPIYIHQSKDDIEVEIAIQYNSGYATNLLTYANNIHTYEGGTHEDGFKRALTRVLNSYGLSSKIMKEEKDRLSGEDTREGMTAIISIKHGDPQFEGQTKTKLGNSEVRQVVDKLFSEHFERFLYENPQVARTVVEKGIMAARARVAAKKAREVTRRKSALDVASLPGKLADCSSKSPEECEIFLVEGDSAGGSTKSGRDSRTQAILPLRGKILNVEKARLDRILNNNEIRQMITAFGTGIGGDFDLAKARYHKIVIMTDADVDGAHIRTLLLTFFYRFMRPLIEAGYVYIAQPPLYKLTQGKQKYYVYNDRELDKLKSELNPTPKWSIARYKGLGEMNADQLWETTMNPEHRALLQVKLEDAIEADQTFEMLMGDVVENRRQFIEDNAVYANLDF
T3 sequence (P0AFI2 whole entry): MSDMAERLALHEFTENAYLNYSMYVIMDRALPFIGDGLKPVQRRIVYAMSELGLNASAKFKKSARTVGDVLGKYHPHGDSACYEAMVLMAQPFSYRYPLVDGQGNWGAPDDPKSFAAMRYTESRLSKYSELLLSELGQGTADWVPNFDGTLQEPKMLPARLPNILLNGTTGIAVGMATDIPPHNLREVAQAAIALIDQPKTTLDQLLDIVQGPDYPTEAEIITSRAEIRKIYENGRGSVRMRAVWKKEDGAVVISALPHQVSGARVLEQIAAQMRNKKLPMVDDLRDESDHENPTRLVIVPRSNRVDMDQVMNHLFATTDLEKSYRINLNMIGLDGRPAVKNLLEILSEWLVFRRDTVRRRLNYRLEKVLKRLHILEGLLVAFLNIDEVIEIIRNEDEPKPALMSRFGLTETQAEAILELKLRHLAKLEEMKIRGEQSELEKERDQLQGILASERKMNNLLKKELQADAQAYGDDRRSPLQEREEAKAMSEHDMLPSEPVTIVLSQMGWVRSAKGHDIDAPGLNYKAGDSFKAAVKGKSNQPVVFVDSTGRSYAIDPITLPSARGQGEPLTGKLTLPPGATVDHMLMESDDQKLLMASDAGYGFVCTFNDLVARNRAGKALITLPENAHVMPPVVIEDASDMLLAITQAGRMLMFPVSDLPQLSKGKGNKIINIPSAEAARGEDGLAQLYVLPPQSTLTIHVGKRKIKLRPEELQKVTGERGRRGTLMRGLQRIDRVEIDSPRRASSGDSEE
T3 sequence (P20083 whole entry): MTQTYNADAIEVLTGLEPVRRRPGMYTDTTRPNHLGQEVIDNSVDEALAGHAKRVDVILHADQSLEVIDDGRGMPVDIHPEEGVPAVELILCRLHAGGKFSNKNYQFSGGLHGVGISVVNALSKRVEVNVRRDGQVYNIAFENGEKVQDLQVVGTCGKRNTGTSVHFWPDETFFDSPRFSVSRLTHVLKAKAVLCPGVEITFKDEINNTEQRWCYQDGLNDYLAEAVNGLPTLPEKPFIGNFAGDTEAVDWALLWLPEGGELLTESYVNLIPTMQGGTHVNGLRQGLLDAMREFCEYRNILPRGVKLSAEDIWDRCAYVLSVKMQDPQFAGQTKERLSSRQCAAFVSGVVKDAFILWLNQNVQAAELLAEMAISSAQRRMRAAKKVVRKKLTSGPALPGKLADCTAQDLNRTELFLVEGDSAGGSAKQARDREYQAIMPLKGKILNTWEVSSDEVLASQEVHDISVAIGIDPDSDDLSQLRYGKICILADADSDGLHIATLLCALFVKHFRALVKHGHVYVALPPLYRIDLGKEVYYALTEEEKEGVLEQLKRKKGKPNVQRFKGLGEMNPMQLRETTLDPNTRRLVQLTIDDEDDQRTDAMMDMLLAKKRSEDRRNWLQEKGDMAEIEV

With Cc1[nH]c(C(=O)Nc2ccc(-c3noc(=O)[nH]3)cc2NC2CCNCC2)c(Cl)c1Cl.Cl [Example 4, 4-((2-(3,4-Dichloro-5-methyl-1H-pyrrole-2-carboxamido)-5-(5-oxo-4,5-dihydro-1,2,4-oxadiazol-3-yl)phenyl)amino)piperidin-1-ium chloride] the pIC50 (E. coli DNA gyrase) was 8.02, the pIC50 (S. aureus DNA gyrase) was 6.60 and the MIC [1] was over 64 µg/mL. It also gave an MIC [2] of over 64 µg/mL, an MIC (E. coli ATCC 25922) of over 64 µg/mL and an MIC (E. faecalis ATCC 29212) of over 64 µg/mL. The MIC (A. baumannii ATCC 17978) was over 64 µg/mL, the MIC (E. faecium ATCC 700221) was over 64 µg/mL and the MIC (S. aureus ATCC 29213) was over 64 µg/mL. The MIC (K. pneumoniae ATCC 10031) was over 64 µg/mL, the MIC (P. aeruginosa ATCC 27853) was over 64 µg/mL and the MIC [3] was over 64 µg/mL. For the same compound, the pIC50 (E. coli topoisomerase IV) was 5.93.

Work on Cc1[nH]c(C(=O)Nc2ccc(-c3noc(=O)[nH]3)cc2N2CCOCC2)c(Cl)c1Cl [Example 8, 3,4-Dichloro-5-methyl-N-(2-morpholino-4-(5-oxo-4,5-dihydro-1,2,4-oxadiazol-3-yl)phenyl)-1H-pyrrole-2-carboxamide] yielded a pIC50 (E. coli DNA gyrase; [8]) of 7.89, a remaining activity at 0.1 µM ([4]; 0.1 μM compound) of 51% and a remaining activity at 1 µM ([4]; 1 μM compound) of 10%.

With Cc1[nH]c(C(=O)Nc2ccc(-c3nn[nH]n3)cc2N2CCCC(CN)C2)c(Cl)c1Cl.Cl (centres unmarked) [Example 9, (1-(2-(3,4-Dichloro-5-methyl-1H-pyrrole-2-carboxamido)-5-(2H-tetrazol-5-yl)phenyl)piperidin-3-yl)methanaminium chloride] the pIC50 (E. coli DNA gyrase; [8]) was 8.67, the pIC50 (S. aureus DNA gyrase; S. aureus DNA gyrase, read-out: IC50) was 7.46 and the MIC ([1]; S. aureus ATCC 700699 (VISA), read-out: MIC) was over 64 µg/mL. For the same compound, the MIC ([2]; E. spp. cloacae ATCC 13047, read-out: MIC) was over 64 µg/mL, the MIC (E. coli ATCC 25922; [9]) was over 64 µg/mL and the MIC (E. faecalis ATCC 29212; E. faecalis ATCC 29212, read-out: MIC) was 8 µg/mL. For the same compound, the MIC (A. baumannii ATCC 17978; A. baumannii ATCC 17978, read-out: MIC) was over 64 µg/mL, the MIC (E. faecium ATCC 700221; E. faecium ATCC 700221, read-out: MIC) was 16 µg/mL and the MIC (S. aureus ATCC 29213; [10]) was 16 µg/mL. It also gave an MIC (K. pneumoniae ATCC 10031; K. pneumoniae ATCC 10031, read-out: MIC) of 64 µg/mL, an MIC (P. aeruginosa ATCC 27853; [11]) of over 64 µg/mL and an MIC ([3]; S. aureus ATCC 43300 (MRSA), read-out: MIC) of over 64 µg/mL. It also gave a pIC50 (E. coli topoisomerase IV; E. coli topo IV, read-out: IC50) of 7.22.

With Cc1[nH]c(C(=O)Nc2ccc(C(=O)O)cc2N2CCC[C@H](N)C2)c(Cl)c1Cl.Cl [Example 14, (S)-1-(5-carboxy-2-(3,4-dichloro-5-methyl-1H-pyrrole-2-carboxamido)phenyl)piperidin-3-aminium chloride] the remaining activity at 0.1 µM (E. coli DNA gyrase; E. coli DNA gyrase, 0.1 μM compound, read-out: RA (residual activity of the enzyme)) was 52%, the remaining activity at 1 µM (E. coli DNA gyrase; E. coli DNA gyrase, 1 μM compound, read-out: RA (residual activity of the enzyme)) was -2% and the MIC [5] was at least 64 µg/mL. The MIC (E. coli ATCC 25922; [9]) was at least 64 µg/mL, the MIC (E. faecium (ATCC 35667)) was at least 64 µg/mL and the MIC (S. aureus ATCC 29213; [10]) was at least 64 µg/mL. For the same compound, the MIC [6] was at least 64 µg/mL, the MIC (P. aeruginosa ATCC 27853; [11]) was at least 64 µg/mL and the MIC [7] was at least 64 µg/mL.

Source: patent US20250002455A1, “NEW N-PHENYLPYRROLAMIDE INHIBITORS OF DNA GYRASE AND TOPOISOMERASE IV WITH ANTIBACTERIAL ACTIVITY” (priority 2020, published 2025)
